From patent publication US20050245738A1, “Stable bioavailable crystalline form or cefdinir and a process for the preparation thereof” (LUPIN LTD, priority 2004, published 2005)

Columns and labels:
[1] = Accelerated storage stability of cefdinir, Aluminum pouch, 40 ± 2° C., Rh 75 ± 5%; format: physicochemical
[2] = Dissolution rate in 0.07 N Hydrochloric acid; format: physicochemical
[3] = accelerated stability tests; cited from earlier work
[4] = 0.07 N Hydrochloric acid, cited from earlier work
[5] = After 30 days at 40 ± 2° C., Rh 75 ± 5%
[6] = After 60 days at 40 ± 2° C., Rh 75 ± 5%
[7] = After 180 days at 40 ± 2° C., Rh 75 ± 5%

Row | IDR: Intrinsic Dissolution Rate [2] [mg/cm^2/min] | Dissolution Profile ([2]; 15 Mins) [mg/cm^2] | Dissolution Profile ([2]; 30 Mins) [mg/cm^2] | Dissolution Profile ([2]; 45 Mins) [mg/cm^2] | Dissolution Profile ([2]; 60 Mins) [mg/cm^2] | Dissolution Profile ([2]; 75 Mins) [mg/cm^2] | Dissolution Profile ([2]; 90 Mins) [mg/cm^2] | Dissolution Profile ([2]; 105 Mins) [mg/cm^2] | Dissolution Profile ([2]; 120 Mins) [mg/cm^2] | Structure (SMILES) | other results
1 | 0.1831 | 4.15 | 8.26 | 10.31 | 14.66 | 16.29 | 19.47 | 22.17 | 23.01 | C=CC1=C(C(=O)O)N2C(=O)[C@@H](NC(=O)/C(=N\O)c3csc(N)n3)[C@H]2SC1 [(Z)-7-[2-(2-amino-4-thiazolyl)-2-hydroxyiminoacetamido]-3-vinyl-3-cephem-4-carboxylic acid] | thermal stability ([1]; 40° C. (75% Rh)): excellent thermal stability; Assay by HPLC (% on Dry Basis) [1, 5]: 97.92 % on Dry Basis; Water Content (%) [1, 5]: 7.46%; pH (1% Aqueous suspension) [1, 5]: 3.46; Assay by HPLC (% on Dry Basis) [1, 6]: 97.38 % on Dry Basis; Water Content (%) [1, 6]: 7.27%; pH (1% Aqueous suspension) [1, 6]: 3.45; Assay by HPLC (% on Dry Basis) [1, 7]: 96.65 % on Dry Basis; Water Content (%) [1, 7]: 7.60%; pH (1% Aqueous suspension) [1, 7]: 3.55; Assay by HPLC (% on Dry Basis) ([1]; Initial): 98.37 % on Dry Basis; Water Content (%) ([1]; Initial): 7.05%; pH (1% Aqueous suspension) ([1]; Initial): 3.40; dissolution rate compared with reference “Crystal A” and material of U.S. Application No. 2003/0204082 A [2]: superior
2 | 0.1392 | 4.59 | 6.01 | 8.70 | 10.42 | 12.23 | 14.94 | 16.79 | 19.02 | C=CC1=C(C(=O)O)N2C(=O)[C@@H](NC(=O)/C(=N\O)c3csc(N)n3)[C@H]2SC1 [Cefdinir Prepared as per the Method of Dobfar's US Applicati] [reference compound] | stability compared with reference “Crystal A” [3]: at least equal to that of the reference “Crystal A”; solubility compared with reference “Crystal A” ([4]; after the first hour): more soluble; dissolution rate compared with reference “Crystal A” ([4]; initially): initially slower
